Key:
Experiment in all cases: relative viability (nuclei count vs DMSO), 5 days (fraction); higher = more cells survive
[1] = compound: O=C(C[C@H]1NCCC[C@@H]1O)Cn1cnc2cc(Br)c(Cl)cc2c1=O (racemic) [Halofuginone] + C[C@@H](Oc1cc(-c2cnn(C3CCNCC3)c2)cnc1N)c1c(Cl)ccc(F)c1Cl [Crizotinib] (partner 1 µM)
Method in brief: (§1)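 One day after seeding in 1536-well plates, lung cancer cell lines were dosed by pin tool. Dosing was either single-drug or a fixed anchor-drug dose plus five library-drug doses (not always all listed) in √10 steps. After 5 days, nuclei were stained in one fix-and-stain step and counted on 4× images, and relative viability is the nuclei count of treated wells over that of vehicle wells, given as the median of duplicate plates.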

[2] = compound: O=C(C[C@H]1NCCC[C@@H]1O)Cn1cnc2cc(Br)c(Cl)cc2c1=O (racemic) [Halofuginone] + CCNC(=O)c1noc(-c2cc(C(C)C)c(O)cc2O)c1-c1ccc(CN2CCOCC2)cc1 [Luminespib] (partner 0.01 µM)
Method in brief: as §1

Decitabine + AZD7762 = compound: Nc1ncn([C@H]2C[C@H](O)[C@@H](CO)O2)c(=O)n1 [Decitabine] + NC(=O)Nc1cc(-c2cccc(F)c2)sc1C(=O)N[C@H]1CCCNC1 [AZD7762] (partner 0.2 µM)
Method in brief: as §1

Halofuginone + Dasatinib = compound: O=C(C[C@H]1NCCC[C@@H]1O)Cn1cnc2cc(Br)c(Cl)cc2c1=O (racemic) [Halofuginone] + Cc1nc(Nc2ncc(C(=O)Nc3c(C)cccc3Cl)s2)cc(N2CCN(CCO)CC2)n1 [Dasatinib] (partner 0.075 µM)
Method in brief: as §1

Cell Line	relative viability ([1]; first compound 0.001 µM)	relative viability ([1]; first compound 0.003162 µM)	relative viability ([1]; first compound 0.01 µM)	relative viability ([1]; first compound 0.03162 µM)	relative viability ([1]; first compound 0.1 µM)	relative viability ([2]; first compound 0.001 µM)	relative viability ([2]; first compound 0.003162 µM)	relative viability ([2]; first compound 0.01 µM)	relative viability ([2]; first compound 0.03162 µM)	relative viability ([2]; first compound 0.1 µM)	relative viability (Decitabine + AZD7762; first compound 0.04 µM)	relative viability (Decitabine + AZD7762; first compound 0.1265 µM)	relative viability (Decitabine + AZD7762; first compound 0.4 µM)	relative viability (Decitabine + AZD7762; first compound 1.265 µM)	relative viability (Decitabine + AZD7762; first compound 4 µM)	relative viability (Halofuginone + Dasatinib; first compound 0.001 µM)	relative viability (Halofuginone + Dasatinib; first compound 0.003162 µM)	relative viability (Halofuginone + Dasatinib; first compound 0.01 µM)	relative viability (Halofuginone + Dasatinib; first compound 0.03162 µM)	relative viability (Halofuginone + Dasatinib; first compound 0.1 µM)
NCI-H23	0.582	0.724	0.486	0.609	0.218	0.213	0.184	0.203	0.203	0.231	0.196	0.271	0.154	0.131	0.162	0.862	0.86	0.891	0.741	0.472
NCI-H1355	1.04	1.04	1.08	1.08	0.921	0.716	0.635	0.672	0.672	0.579	0.442	0.473	0.376	0.267	0.241	0.762	0.764	0.727	0.692	0.458
A-427	0.941	0.911	0.795	0.807	0.764	1.08	0.934	0.913	0.818	0.733	0.464	0.512	0.425	0.278	0.285	0.744	0.773	0.678	0.723	0.643
NCI-H596	1.23	1.05	0.941	1.01	0.666	1.02	1.23	1.06	0.941	0.324	1.07	1.14	0.699	0.913	0.881	0.538	0.533	0.598	0.559	0.366
LU99A	0.632	0.556	0.558	0.499	0.41	0.244	0.281	0.238	0.239	0.174	0.373	0.376	0.335	0.32	0.29	0.743	0.584	0.453	0.53	0.392
